{
  "source": "PubChem BioAssay AID2060905",
  "about": "(Molecular Pharmacology Branch, DTP, NCI, 2025)",
  "system": "282377-053-R-J1-PDC complex spheroid viability",
  "assay": "Anticancer human tumor 282377-053-R-J1-PDC patient-derived colon adenocarcinoma cell line growth inhibition [RAS]",
  "details": "for viability, T/C: stronger effect = lower value",
  "procedure,_shortened": "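Agents were tested in combination matrices in half-log decrements from a top concentration at or near clinical Cmax (10 microM if undetermined). Targets were multi-cell spheroids of tumour lines plus HUVEC and MSC stromal cells.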",
  "note": "Several values for one entry are separate records, joined by “and”; a condition that tells them apart may be missing. Equal values may be shown once.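 Note: spheroids exposed to agents for seven days before readout.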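 Throughout, for viability, T/C: luminescence viability as percent of DMSO vehicle control wells.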",
  "data": [
    {"smiles": "NC1c2ccccc2OC12CCN(c1cnc3c(N4CCCc5ncccc54)n[nH]c3n1)CC2", "note": "(centres undefined)", "values": [
      {"measurement": "viability, T/C", "setting": "compound 0.0316 µM", "value": "98.1% [middle of 4 runs]"},
      {"measurement": "viability, T/C", "setting": "compound 0.1 µM", "value": "98.2% [middle of 4 runs]"},
      {"measurement": "viability, T/C", "setting": "compound 0.316 µM", "value": "101% [middle of 4 runs]"},
      {"measurement": "viability, T/C", "setting": "compound 1 µM", "value": "109% (2×) and 96.3% and 103%"},
      {"measurement": "viability, T/C", "setting": "compound 3.16 µM", "value": "97.5% [middle of 4 runs]"},
      {"measurement": "viability, T/C", "setting": "compound 10 µM", "value": "89.8% [middle of 4 runs]"},
      {"measurement": "IC50", "setting": "curve of compound", "value": "> 10000", "unit": "nM"}
    ]},
    {"smiles": "CCc1c2c(nc3ccc(O)cc13)-c1cc3c(c(=O)n1C2)COC(=O)[C@]3(O)CC", "note": "+ CCn1c(-c2cc(N3CCN(C)CC3)cnc2C(C)OC)c2c3cc(ccc31)-c1csc(n1)CC(NC(=O)C1CC1C)C(=O)N1CCCC(N1)C(=O)OCC(C)(C)C2", "values": [
      {"measurement": "IC50", "setting": "curve of first compound, second compound 0.000949 µM", "value": "> 300", "unit": "nM"},
      {"measurement": "IC50", "setting": "curve of first compound, second compound 0.003 µM", "value": "> 300", "unit": "nM"},
      {"measurement": "IC50", "setting": "curve of first compound, second compound 0.00949 µM", "value": "> 300", "unit": "nM"},
      {"measurement": "IC50", "setting": "curve of first compound, second compound 0.03 µM", "value": "> 300", "unit": "nM"},
      {"measurement": "IC50", "setting": "curve of first compound, second compound 0.0949 µM", "value": "> 300", "unit": "nM"},
      {"measurement": "IC50", "setting": "curve of first compound, second compound 0.3 µM", "value": "> 300", "unit": "nM"},
      {"measurement": "viability, T/C", "setting": "second compound 0.000949 µM, first compound 0.000949 µM", "value": 130, "unit": "%"},
      {"measurement": "viability, T/C", "setting": "second compound 0.000949 µM, first compound 0.003 µM", "value": 112, "unit": "%"},
      {"measurement": "viability, T/C", "setting": "second compound 0.000949 µM, first compound 0.00949 µM", "value": 153, "unit": "%"},
      {"measurement": "viability, T/C", "setting": "second compound 0.000949 µM, first compound 0.03 µM", "value": 124, "unit": "%"},
      {"measurement": "viability, T/C", "setting": "second compound 0.000949 µM, first compound 0.0949 µM", "value": 86.5, "unit": "%"},
      {"measurement": "viability, T/C", "setting": "second compound 0.000949 µM, first compound 0.3 µM", "value": 81, "unit": "%"},
      {"measurement": "viability, T/C", "setting": "second compound 0.003 µM, first compound 0.000949 µM", "value": 109, "unit": "%"},
      {"measurement": "viability, T/C", "setting": "second compound 0.003 µM, first compound 0.003 µM", "value": 114, "unit": "%"},
      {"measurement": "viability, T/C", "setting": "second compound 0.003 µM, first compound 0.00949 µM", "value": 151, "unit": "%"},
      {"measurement": "viability, T/C", "setting": "second compound 0.003 µM, first compound 0.03 µM", "value": 107, "unit": "%"},
      {"measurement": "viability, T/C", "setting": "second compound 0.003 µM, first compound 0.0949 µM", "value": 119, "unit": "%"},
      {"measurement": "viability, T/C", "setting": "second compound 0.003 µM, first compound 0.3 µM", "value": 66.2, "unit": "%"},
      {"measurement": "viability, T/C", "setting": "second compound 0.00949 µM, first compound 0.000949 µM", "value": 107, "unit": "%"},
      {"measurement": "viability, T/C", "setting": "second compound 0.00949 µM, first compound 0.003 µM", "value": 112, "unit": "%"},
      {"measurement": "viability, T/C", "setting": "second compound 0.00949 µM, first compound 0.00949 µM", "value": 136, "unit": "%"},
      {"measurement": "viability, T/C", "setting": "second compound 0.00949 µM, first compound 0.03 µM", "value": 105, "unit": "%"},
      {"measurement": "viability, T/C", "setting": "second compound 0.00949 µM, first compound 0.0949 µM", "value": 112, "unit": "%"},
      {"measurement": "viability, T/C", "setting": "second compound 0.00949 µM, first compound 0.3 µM", "value": 77.2, "unit": "%"},
      {"measurement": "viability, T/C", "setting": "second compound 0.03 µM, first compound 0.000949 µM", "value": 116, "unit": "%"},
      {"measurement": "viability, T/C", "setting": "second compound 0.03 µM, first compound 0.003 µM", "value": 102, "unit": "%"},
      {"measurement": "viability, T/C", "setting": "second compound 0.03 µM, first compound 0.00949 µM", "value": 139, "unit": "%"},
      {"measurement": "viability, T/C", "setting": "second compound 0.03 µM, first compound 0.03 µM", "value": 122, "unit": "%"},
      {"measurement": "viability, T/C", "setting": "second compound 0.03 µM, first compound 0.0949 µM", "value": 118, "unit": "%"},
      {"measurement": "viability, T/C", "setting": "second compound 0.03 µM, first compound 0.3 µM", "value": 65.4, "unit": "%"},
      {"measurement": "viability, T/C", "setting": "second compound 0.0949 µM, first compound 0.000949 µM", "value": 115, "unit": "%"},
      {"measurement": "viability, T/C", "setting": "second compound 0.0949 µM, first compound 0.003 µM", "value": 122, "unit": "%"},
      {"measurement": "viability, T/C", "setting": "second compound 0.0949 µM, first compound 0.00949 µM", "value": 162, "unit": "%"},
      {"measurement": "viability, T/C", "setting": "second compound 0.0949 µM, first compound 0.03 µM", "value": 131, "unit": "%"},
      {"measurement": "viability, T/C", "setting": "second compound 0.0949 µM, first compound 0.0949 µM", "value": 116, "unit": "%"},
      {"measurement": "viability, T/C", "setting": "second compound 0.0949 µM, first compound 0.3 µM", "value": 69.4, "unit": "%"},
      {"measurement": "viability, T/C", "setting": "second compound 0.3 µM, first compound 0.000949 µM", "value": 131, "unit": "%"},
      {"measurement": "viability, T/C", "setting": "second compound 0.3 µM, first compound 0.003 µM", "value": 131, "unit": "%"},
      {"measurement": "viability, T/C", "setting": "second compound 0.3 µM, first compound 0.00949 µM", "value": 161, "unit": "%"},
      {"measurement": "viability, T/C", "setting": "second compound 0.3 µM, first compound 0.03 µM", "value": 104, "unit": "%"},
      {"measurement": "viability, T/C", "setting": "second compound 0.3 µM, first compound 0.0949 µM", "value": 109, "unit": "%"},
      {"measurement": "viability, T/C", "setting": "second compound 0.3 µM, first compound 0.3 µM", "value": 77.9, "unit": "%"}
    ]}
  ]
}
